# Key:
# SARS-CoV-2 [1] = type: cell-based; settings: human primary cells from airways biopsies infected with SARS-CoV-2 (MOI 0.001), 10 μM, day 2 post-infection, vs non-treated cells (FIG. 1)
# ACE2 [2] = assay: ACE2 expression in A549 cells (RT-PCR/SYBR green PCR, immunoblot); type: cell-based, human; settings: incubation of 3 h to 24 h
# Procedure: Human epithelial NSLC cell lines A549 were purchased from ATCC (catalogue number: ATCC CCL-185, American Type Culture Collection (ATCC), Manassas, VA). A549 cells were maintained in DMEM containing 10% fetal bovine serum (FBS), 4 mM GlutaMax (Thermo Scientific, Waltham, MA), 500 μg/mL Normocin (InvivoGen, San Diego, CA), 100 units/mL penicillin, and […] streptomycin (Thermo Scientific).
# (§1) Gene downregulation of ACE2 has been evaluated with by RT-PCR and SYBR green PCR analyses. Total RNA was extracted from the cells or tissues and purified with the TRIzol reagent according to the manufacturer's protocol (Invitrogen). RNA was reverse transcribed by SuperScript® III reverse transcriptase (Invitrogen). The genes were amplified by with specific primers designed using BLAST alignment. Three housekeeping gene, GAPDH, (3-actin gene, and rare PBGD (porphobilinogen deaminase) gene were combined for normalization. Relative expression levels have been evaluated with the parameter of (ΔCt) of different human cell lines and human GNB cells after treatment with EP2, EP4 or EP2/EP4 agonists at a dose response concentration varying from 10E-2 to 10E2 fold of their respective EC50 of binding activity on each relevant EP receptor.
# (§2) Immunoblot analysis on A549 cells treated with different EP2 and/or EP4 agonists doses ranging from 10E-2 to 10E2 fold of their respective binding EC50 is performed by lysing cells as described by Jia et al. (J. Virol., 2005, 79(23), 14614-14621).
# ACE2 [3] = assay: ACE2 expression in human primary ciliated cells obtained by gentle nasal brushing (RT-PCR/SYBR green PCR, immunoblot); type: cell-based; settings: GNC cells, incubation of 3 h to 24 h
# Procedure: Human primary ciliated cells obtained by gentle nasal brushing cells (GNBC cells) are collected from different patient sources, as described by Veit et al. (Nat. Med., 2018, 24(11), 1732-1742). Ciliogenesis is performed on cells plated on to poly-lysine-coated coverslips in 3.5-cm plates at 0.4×10^6 cells per well, allowed to attach for 24 hr, and then serum starved for 48 hr.
# as §1, §2
# SARS-CoV-2 [4] = type: cell-based; settings: cells infected with SARS-CoV-2 (Example 4)
# UREC cells = assay: Microarray transcriptome analysis of UREC cells (Affymetrix Human ClariomD, Reactome/GO analysis); type: cell-based
# Procedure: Cell Culture Immortalized temperature-sensitive URECs are maintained and resuspended in complete RCGM (RCGM medium (0.5% FBS), 1.5% (v/v) certified FBS). Cells were seeded at 116,000 cells/well (350 k cells/cm 2) in 200 μl total volume of complete RCGM medium. Seed in triplicates per each experimental condition. Incubate at 39° C. to stop proliferation for 72 hours. After 72 hrs of cell growth, remove complete RCGM media. Replace with fresh complete RCGM media (2% FBS) containing the drug (at either 0.2, 2, or 10 μM) or vehicle control (media alone or 0.04% DMSO) at the appropriate concentration.
# RNA Extraction. Extract RNA using RNeasy Micro Kit (Qiagene) using supplier's procedure. In short, disrupt the cells by adding QIAzol Lysis Reagent. Scratch each well with the pipette tip and pipette to mix. Homogenize the cells by vortexing. Adjust sample volume. Homogenize by passing the lysate through a 20-gauge needle. Precipitate proteins using chloroform solution. Load into a RNeasy MinElute column. Wash and elute following supplier's procedure. Prepare sample at a concentration of 5 ng/μl for quality control and measure by spectrometry (Xpose, Trinean) and confirming RNA as a RIN using capillary electrophoresis (TapeStation, Agilent). The average yield of extraction is 0.4±0.2 μg/100,000 cells (1 well of a 96-well plate).
# Microarray data analysis. Affymetrix Human ClariomD were used following manufacturers protocols. Affymetrix Human ClariomD data were normalized using quantile normalization with adjustment based on the median intensity of probes with similar GC content (using Affymetrix Power Tools). Background correction was made using the antigenomic probes. Only probes targeting exons annotated from FAST DB v2016_1 transcripts were selected. Probes were considered as expressed if the DABG p-value ≤0.05 (Detection Above Background p-values were calculated using Affymetrix Power Tools) in more or equal than 60% of samples. Genes were considered as expressed if more or equal than 50% of their probes are expressed Minimum 4 selected probes were required to assess gene expression. If possible only high-specific probes were selected (i.e., not overlapping with repeat regions; not cross-hybridizing; and 40≤GC %≤60). In addition, if possible, only probes targeting constitutive gene regions were selected (i.e., targeting at least 75% of transcripts of a given gene). We performed a paired Student's t-test to compare gene intensities in the different biological replicates.
# Analysis at the splicing level was first performed taking into account only exon probes (“EXON” analysis) in order to potentially detect new alternative events that could be differentially regulated (i.e., without taking into account known alternative events). Analysis at the splicing level was also performed by taking into account known patterns (“PATTERN” analysis) using the FAST DB splicing patterns annotation (i.e., for each gene, all possible splicing patterns were defined by comparing exon content of transcripts). All types of alternative events can be analyzed: Alternative first exons, alternative terminal exons, cassette exon, mutually exclusive exons, alternative 5′ donor splice site, alternative 3′-acceptor splice sites, intron retention, internal exon deletion and complex events corresponding to mix of several alternative event categories). “EXON” and “PATTERN” analyses were based on the splicing-index calculation. Results were considered statistically significant for uncorrected p-values ≤0.05 and fold-changes ≥2.0. Finally, significant results from “EXON” and “PATTERN” analyses were merged to obtain a single result list.
# Unsupervised analysis. The PCA has been performed using “prcomp” function in R and the 2 first dimensions were plotted. The clustering has been performed using “dist” and “hclust” functions in R, using Euclidean distance and Ward agglomeration method. […]
# [5] = 71 genes in term, UREC cells, 2 micromolar PGE1 vs non treated control
# [6] = UREC cells, 2 micromolar PGE1 vs non treated control, regulation up
smiles,measurement,setting,value
"O=C(O)COc1cccc(CN(Cc2ccc(-n3cccn3)cc2)S(=O)(=O)c2cccnc2)c1 [Lab1, taprenepag]",virus replication (viral RNA),SARS-CoV-2 [1],able to decrease virus replication
same,expression of mRNA of ACE2,ACE2 [2],significantly reduce
same,protein level of ACE2,ACE2 [2],significantly reduce
same,expression of mRNA of ACE2,ACE2 [3],significantly reduce
same,protein level of ACE2,ACE2 [3],significantly reduce
same,effect on SARS-CoV-2 infection,SARS-CoV-2 [4],significant effect
"CC#CCC(C)[C@H](O)/C=C/[C@@H]1[C@H]2C/C(=C/CCCC(=O)O)C[C@H]2C[C@H]1O (stereo partly shown) [Lab2, iloprost]",effect on SARS-CoV-2 infection,SARS-CoV-2 [4],significant effect
"CCCCC(C)(C)[C@H](O)/C=C/[C@H]1[C@H](O)CC(=O)[C@@H]1C/C=C\CCCC(=O)O [Lab3, 16-16-dimethyl-PGE2]",effect on SARS-CoV-2 infection,SARS-CoV-2 [4],significant effect
"CCCCC[C@H](O)CC[C@H]1[C@H](O)CC(=O)[C@@H]1CCCCCCC(=O)O [Lab4, 13,14-dihydro-PGE1]",effect on SARS-CoV-2 infection,SARS-CoV-2 [4],significant effect
"O=C1CC[C@H](/C=C/[C@@H](O)C(F)(F)c2ccccc2)N1CCCCCCc1nn[nH]n1 [Lab5, L902688]",effect on SARS-CoV-2 infection,SARS-CoV-2 [4],significant effect
"CCCCC[C@H](O)/C=C/[C@H]1[C@H](O)CC(=O)[C@@H]1CCCCCCC(=O)O [PGE1, Prostaglandin E1]",expression of mRNA of ACE2,ACE2 [2],significantly reduce
same,protein level of ACE2,ACE2 [2],significantly reduce
same,expression of mRNA of ACE2,ACE2 [3],significantly reduce
same,protein level of ACE2,ACE2 [3],significantly reduce
same,"Nb Regulated Genes (Up/Down), GO:0009597 detection of virus","UREC cells; 5 genes in term, UREC cells, 2 micromolar PGE1 vs non treated control",3 (3/0)
same,"Nb Regulated Genes (Up/Down), GO:0035455 response to interferon-alpha","UREC cells; 10 genes in term, UREC cells, 2 micromolar PGE1 vs non treated control",4 (4/0)
same,"Nb Regulated Genes (Up/Down), R-HSA-918233 TRAF3-dependent IRF activation pathway","UREC cells; 14 genes in pathway, UREC cells, 2 micromolar PGE1 vs non treated control",4 (4/0)
same,"Nb Regulated Genes (Up/Down), R-HSA-168928 RIG-I/MDA5 mediated induction of IFN-alpha/beta pathways","UREC cells; 17 genes in pathway, UREC cells, 2 micromolar PGE1 vs non treated control",6 (6/0)
same,"Nb Regulated Genes (Up/Down), GO:0005164 tumor necrosis factor receptor binding","UREC cells; 29 genes in term, UREC cells, 2 micromolar PGE1 vs non treated control",6 (5/1)
same,"Nb Regulated Genes (Up/Down), R-HSA-933541 TRAF6 mediated IRF7 activation","UREC cells; 33 genes in pathway, UREC cells, 2 micromolar PGE1 vs non treated control",4 (4/0)
same,"Nb Regulated Genes (Up/Down), R-HSA-936440 Negative regulators of RIG-I/MDA5 signaling","UREC cells; 34 genes in pathway, UREC cells, 2 micromolar PGE1 vs non treated control",5 (5/0)
same,"Nb Regulated Genes (Up/Down), GO:0045071 negative regulation of viral genome replication","UREC cells; 40 genes in term, UREC cells, 2 micromolar PGE1 vs non treated control",11 (11/0)
same,"Nb Regulated Genes (Up/Down), GO:0060337 type I interferon signaling pathway","UREC cells; 64 genes in term, UREC cells, 2 micromolar PGE1 vs non treated control",20 (20/0)
same,"Nb Regulated Genes (Up/Down), R-HSA-909733 Interferon alpha/beta signaling","UREC cells; 67 genes in pathway, UREC cells, 2 micromolar PGE1 vs non treated control",20 (20/0)
same,"Nb Regulated Genes (Up/Down), GO:0060333 interferon-gamma-mediated signaling pathway",UREC cells; [5],8 (8/0)
same,"Nb Regulated Genes (Up/Down), GO:0071347 cellular response to interleukin-1",UREC cells; [5],9 (5/4)
same,"Nb Regulated Genes (Up/Down), R-HSA-1169408 ISG15 antiviral mechanism","UREC cells; 73 genes in pathway, UREC cells, 2 micromolar PGE1 vs non treated control",11 (11/0)
same,"Nb Regulated Genes (Up/Down), R-HSA-877300 Interferon gamma signaling","UREC cells; 88 genes in pathway, UREC cells, 2 micromolar PGE1 vs non treated control",11 (11/0)
same,"Nb Regulated Genes (Up/Down), GO:0009615 response to virus","UREC cells; 110 genes in term, UREC cells, 2 micromolar PGE1 vs non treated control",21 (19/2)
same,"Nb Regulated Genes (Up/Down), GO:0051607 defense response to virus","UREC cells; 165 genes in term, UREC cells, 2 micromolar PGE1 vs non treated control",27 (25/2)
same,"Nb Regulated Genes (Up/Down), GO:0006954 inflammatory response","UREC cells; 379 genes in term, UREC cells, 2 micromolar PGE1 vs non treated control",22 (12/10)
same,"Nb Regulated Genes (Up/Down), GO:0006955 immune response","UREC cells; 421 genes in term, UREC cells, 2 micromolar PGE1 vs non treated control",26 (19/7)
same,"Nb Regulated Genes (Up/Down), GO:0045087 innate immune response","UREC cells; 430 genes in term, UREC cells, 2 micromolar PGE1 vs non treated control",30 (27/3)
same,Fold-Change BIRC3,"UREC cells; UREC cells, 2 micromolar PGE1 vs non treated control, regulation down",1.67
same,Fold-Change BST2,UREC cells; [6],1.6
same,Fold-Change DDX58,UREC cells; [6],2.76
same,Fold-Change DHX58,UREC cells; [6],1.55
same,Fold-Change EIF2AK2,UREC cells; [6],1.74
same,Fold-Change EIF4E3,UREC cells; [6],1.72
same,Fold-Change FAST DB STABLE ID GSHG0007017 (no gene symbol),UREC cells; [6],3.58
same,Fold-Change FAST DB STABLE ID GSHG0007018 (no gene symbol),UREC cells; [6],1.93
same,Fold-Change GBP2//GBP7,UREC cells; [6],1.62
same,Fold-Change GBP4,UREC cells; [6],1.86
same,Fold-Change HERC5,UREC cells; [6],2.37
same,Fold-Change HLA-DRA,UREC cells; [6],1.86
same,Fold-Change IFI6,UREC cells; [6],2.51
same,Fold-Change IFI27,UREC cells; [6],1.57
same,Fold-Change IFI35,UREC cells; [6],1.62
same,Fold-Change IFIH1,UREC cells; [6],2.45
same,Fold-Change IFIT1,UREC cells; [6],5.18
same,Fold-Change IFIT2,UREC cells; [6],4.84
same,Fold-Change IFIT3,UREC cells; [6],3.99
same,Fold-Change IFITM1,UREC cells; [6],2.35
same,Fold-Change IRF7,UREC cells; [6],1.88
same,Fold-Change ISG15,UREC cells; [6],1.89
same,Fold-Change MIR3614//TRIM25,UREC cells; [6],1.56
same,Fold-Change MX1,UREC cells; [6],3.68
same,Fold-Change MX2,UREC cells; [6],4.02
same,Fold-Change OASL,UREC cells; [6],2.27
same,Fold-Change RSAD2,UREC cells; [6],3.79
same,Fold-Change SAMHD1,UREC cells; [6],1.89
same,Fold-Change STAT1,UREC cells; [6],1.73
same,Fold-Change TNFSF12//TNFSF12-TNFSF13//TNFSF13,UREC cells; [6],1.62
same,Fold-Change TNFSF13B,UREC cells; [6],1.65
same,Fold-Change TRIM14,UREC cells; [6],2.02
same,Fold-Change USP18,UREC cells; [6],2.26
same,Fold-Change XAF1,UREC cells; [6],1.82
same,expression of a major biological pathway related to viral infection and interferon signaling,UREC cells; UREC human cells,significantly modifies
same,"fold changes of IFN related genes IFIT1, IFIT2 and IFIT3 (overexpressed)",UREC cells; UREC human cells,> 3
same,induction of IFN related gene across doses tested,"UREC cells; UREC human cells, doses from 0.2 to 10 microM",consistent
